Literature values, collected in US20100239665A1 (priority 2007, published 2010).

Compound: COCCOC(=O)C1=C(C)NC(C)=C(C(=O)OC(C)C)C1c1cccc([N+](=O)[O-])c1 (stereo not shown) [Nimodipine]
- solubility in water: practically insoluble in water
